Source: patent US7851467B2, “Carbamate compounds as 5-HT4 receptor agonists” (Theravance, Inc., priority 2005, dated 2010)

Target: T1, hERG cardiac potassium channel (Homo sapiens, UniProt Q12809)
T1 construct: host or cells: CHO-K1
Experiment: In vitro voltage clamp assay of inhibition of potassium ion current in whole cells expressing hERG
Assay type: cell-based
Conditions: CHO-K1 cells stably transfected with hERG, pH 7.4, five-minute exposure
Method: Assay 4: In Vitro Voltage Clamp Assay of Inhibition of Potassium Ion Current in Whole Cells Expressing the hERG Cardiac Potassium Channel
CHO-K1 cells stably transfected with hERG cDNA were obtained from Gail Robertson at the University of Wisconsin. Cells were held in cryogenic storage until needed. Cells were expanded and passaged in Dulbecco's Modified Eagles Medium/F12 supplemented with 10% fetal bovine serum and 200 μg/mL geneticin. Cells were seeded onto poly-D-lysine (100 μg/mL) coated glass coverslips, in 35 mm^2 dishes (containing 2 mL medium) at a density that enabled isolated cells to be selected for whole cell voltage-clamp studies. The dishes were maintained in a humidified, 5% CO2 environment at 37° C.
Extracellular solution was prepared at least every 7 days and stored at 4° C. when not in use. […]
The coverslips on which the cells were seeded were transferred to a recording chamber and perfused continuously. […] Peak current amplitudes during the repolarization phase were determined using pClamp software. […]
Peak current amplitudes during the repolarization phase were determined using pCLAMP software. […] The normalized current means and standard errors for each condition were calculated and plotted versus the time course of the experiment. […]

T1 sequence (Q12809 whole entry): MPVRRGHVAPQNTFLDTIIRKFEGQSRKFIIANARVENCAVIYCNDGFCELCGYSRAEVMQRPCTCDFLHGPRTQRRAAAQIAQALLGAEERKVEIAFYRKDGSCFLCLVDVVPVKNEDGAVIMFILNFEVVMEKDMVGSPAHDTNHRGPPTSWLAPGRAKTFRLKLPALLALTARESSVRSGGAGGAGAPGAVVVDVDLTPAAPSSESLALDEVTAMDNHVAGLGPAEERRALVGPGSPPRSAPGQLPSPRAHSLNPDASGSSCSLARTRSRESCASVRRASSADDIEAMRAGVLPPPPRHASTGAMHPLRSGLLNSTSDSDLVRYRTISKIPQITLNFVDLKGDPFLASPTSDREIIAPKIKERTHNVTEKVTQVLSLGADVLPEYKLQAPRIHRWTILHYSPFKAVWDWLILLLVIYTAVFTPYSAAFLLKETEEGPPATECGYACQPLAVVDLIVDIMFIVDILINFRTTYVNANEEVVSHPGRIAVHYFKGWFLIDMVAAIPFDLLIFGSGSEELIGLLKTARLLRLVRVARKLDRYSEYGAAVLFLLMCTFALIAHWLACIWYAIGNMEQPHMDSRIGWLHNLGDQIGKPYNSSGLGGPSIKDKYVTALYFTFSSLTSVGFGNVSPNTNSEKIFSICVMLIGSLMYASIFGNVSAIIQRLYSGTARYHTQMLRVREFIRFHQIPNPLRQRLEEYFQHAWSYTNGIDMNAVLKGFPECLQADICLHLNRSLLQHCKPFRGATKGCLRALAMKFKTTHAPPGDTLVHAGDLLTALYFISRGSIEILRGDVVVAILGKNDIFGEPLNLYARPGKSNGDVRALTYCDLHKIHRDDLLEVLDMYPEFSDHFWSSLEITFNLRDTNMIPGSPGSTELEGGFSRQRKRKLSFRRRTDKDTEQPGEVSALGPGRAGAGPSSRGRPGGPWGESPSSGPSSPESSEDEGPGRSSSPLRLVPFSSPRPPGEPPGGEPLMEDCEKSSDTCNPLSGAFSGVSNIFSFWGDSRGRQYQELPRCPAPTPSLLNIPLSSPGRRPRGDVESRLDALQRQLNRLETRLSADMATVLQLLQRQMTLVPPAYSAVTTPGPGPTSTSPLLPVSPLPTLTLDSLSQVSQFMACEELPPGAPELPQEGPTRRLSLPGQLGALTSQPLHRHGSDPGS

CC(C)n1c(=O)n(C(=O)N[C@H]2C[C@H]3CC[C@@H](C2)N3CCCOC(=O)N2CCN(C(=O)C3CCCO3)CC2)c2ccccc21 (stereo partly drawn) [Example 1, 4-(tetrahydrofuran-2-carbonyl)piperazine-1-carboxylic acid 3-{(1S,3R,5R)-3-[(3-isopropyl-2-oxo-2,3-dihydrobenzoimidazole-1-carbonyl)amino]-8-aza-bicyclo[3.2.1]oct-8-yl}propyl ester]
inhibition at 5 min, 3 µM: ~9%
